From BindingDB's records for patent US10508104 (Bristol Myers Squibb, 2019)

Target: T1, Apelin receptor (Homo sapiens, UniProt P35414)
T1 sequence (P35414 whole entry): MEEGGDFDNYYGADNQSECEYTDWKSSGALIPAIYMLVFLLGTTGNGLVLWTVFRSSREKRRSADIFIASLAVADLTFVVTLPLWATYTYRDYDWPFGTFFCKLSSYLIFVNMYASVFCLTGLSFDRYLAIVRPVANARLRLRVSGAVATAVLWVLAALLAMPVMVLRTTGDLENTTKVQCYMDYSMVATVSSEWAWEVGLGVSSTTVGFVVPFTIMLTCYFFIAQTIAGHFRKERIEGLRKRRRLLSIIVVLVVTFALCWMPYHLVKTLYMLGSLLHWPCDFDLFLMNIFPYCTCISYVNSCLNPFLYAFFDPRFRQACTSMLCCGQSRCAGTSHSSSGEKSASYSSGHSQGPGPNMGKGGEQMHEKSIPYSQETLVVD
Experiment: Intracellular cAMP Accumulation Assay
Protocol: HEK293 cells stably expressing human APJ receptor were used to assess the activity of compounds. Cultured cells were detached and resuspended in the cAMP Homogeneous Time-Resolved Fluorescence (HTRF) assay buffer (Cisbio cat; #62AM4PEJ). […] Serial dilutions of a compound together with assay buffer containing […] and 2 μM forskolin were added to each well containing 5,000 cells and incubated for 30 minutes at room temperature. Subsequently, cAMP D2 reagent was added in the lysis buffer followed by the EuK antibody (Cisbio; cat #62AM4PEJ) and incubated for 60 min. The fluorescence emission ratio was measured using fluorometer. The intracellular cAMP concentrations (compound-stimulated inhibition of forskolin-mediated cAMP production) were calculated by extrapolation from a standard curve using known cAMP concentrations. The EC50 values were obtained by fitting the data to a sigmoidal concentration-response curve with variable slope.

EC50: in the range around 5 nM
SMILES: CCCCC1NC(=O)C(S(=O)(=O)c2ccc(-c3ccnc(F)c3C)cc2)=C(O)N1[C@@H](CC)c1cccc(OC)c1 (stereo partly specified) [US10508104, Example 169]
